# “Also recorded” adds a separate entry of the source. Numbered stars: 1 amine (or outer) side, 2 acyl side, 3 side chain; on linkers, the order of the positions; unused ones are H or OH. Side chains are listed from the residue outwards. Ends that are not written are not given here. Peptide text beside a SMILES is read from it. * marks the point of attachment. X1 = C[C@H](NC(=O)[C@@H]1CCCN1C(=O)[C@@H](N)CSC1CC(=O)N(CCC(=O)*)C1=O)C(=O)N[C@@H](CCCCN)C(=O)O; γGlu = O=C(O)[C@H](CCC(=O)[*:2])N[*:1]; Fumaroyl = O=C(O)/C=C/C(=O)*; Suc = O=C(CCC(=O)[*:2])[*:1]; Lauroyl = CCCCCCCCCCCC(=O)*; AEEA = NCCOCCOCC(=O)O
# Key:
# [1] = target: T1, dog ETB receptor (Canis lupus familiaris, UniProt P56497); assay: Determination of EC50s of polypeptides against dog ETB receptor; type: cell-based; conditions: Table 7, dog ETB receptor; for EC50: read-out: DETAR Agonist Activity EC50
# T1 construct: expressed in transfected cells
# T1 sequence (P56497 27-442): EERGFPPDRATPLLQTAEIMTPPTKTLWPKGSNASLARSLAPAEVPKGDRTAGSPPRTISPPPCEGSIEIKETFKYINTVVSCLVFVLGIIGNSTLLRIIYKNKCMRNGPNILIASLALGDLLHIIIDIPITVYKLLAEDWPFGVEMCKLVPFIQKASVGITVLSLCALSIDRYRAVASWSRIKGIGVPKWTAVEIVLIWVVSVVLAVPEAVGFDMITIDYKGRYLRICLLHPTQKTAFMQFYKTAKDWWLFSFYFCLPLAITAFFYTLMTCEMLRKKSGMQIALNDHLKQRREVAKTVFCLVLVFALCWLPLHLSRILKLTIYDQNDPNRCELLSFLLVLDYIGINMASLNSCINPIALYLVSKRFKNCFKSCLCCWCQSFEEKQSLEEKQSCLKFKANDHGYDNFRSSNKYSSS
# Description: 293T-17 cells were seeded at a density of 650,000 cells per well in a 6-well plate and cultured overnight in an incubator at 37°C and 5% CO2. Afterward, the cells were transfected with an expression vector, PCDNA3.1-hETB which contained a human ETB receptor gene, at a plasmid concentration of 2.5 µg per well. The cells were further cultured for 48 hours, and green fluorescence expression was observed under a fluorescence microscope. The cells were then digested with trypsin and counted. The activity of compounds on the human ETB receptor was determined with the IP-One Gq kit from Cisbio Bioassays. The cells were suspended in Stim Buffer provided in the kit and the cell suspension was added to a 96-well detection plate at 7 µL cell suspension (containing 30,000 cells) per well. The polypeptides to be tested (prepared according to the Preparation Example of the invention) were diluted in Stim B to obtain a gradient of 11 concentration points. For each concentration point, the polypeptides to be tested were dissolved in Stim B to be at a concentration of 2×, and added at 7 µL to the test cells, while 7 µL of PBS solution was added to the cells in the negative control wells. The plate was sealed and incubated at 37°C for 1 hour in a cell culture incubator. Detection wells, positive control wells containing human endothelin ET1 (ET1: […] (C1-C15,C3-C11)), and PBS control wells were each added with 3 µL of IP1 d2 working solution and 3 µL of IP1 Tb cryptotate Antibody working solution. The plate was then sealed and incubated in the dark at room temperature (25°C±5°C) for 1 hour. The plate seal was removed, and the […] at 665 nm and 620 nm was measured with an ID5 microplate reader. The ratio of the acceptor emission signal to the donor emission signal, i.e., (signal at 665 nm/signal at 620 nm)×10^4, was calculated for each well. With F representing the average value of values of signal at 665 nm/signal at 620 nm for the test samples at various concentrations, a scatterplot was plotted, where the abscissa represented the F value, and the ordinate represented the logarithmic value of the peptide concentration. A curve was fitted with an appropriate method to calculate EC50 values of the polypeptides against the human ETB receptor. Another method was provided for fitting a curve where activation rate of the test polypeptides at each concentration relative to the positive control sample human endothelin ET1 was calculated first with the method in Example 1, and a scatterplot was plotted, where the abscissa represented the activation rate, and the ordinate represented the logarithmic value of the polypeptide concentration. A curve was fitted with an appropriate method to calculate the EC50 values of the polypeptides against the human ETB receptor.
# The process is the same as that in Example 3, except that the transfected plasmid was expression vector PCDNA3.1-DETB which contained a dog ETB receptor gene. EC50 values of the polypeptide against the dog ETB receptor were calculated (see Figures 8-10). The sequence of the dog endothelin receptor B (NCBI accession number: NM_001010943.2).
# [2] = in vivo; conditions: male, SD, rat, in vivo, iv
# Method in brief: (§1)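 Male SD rats (200-230 g) given single tail-vein injections, descending doses from 480 µg/Kg to 30 µg/Kg. Toxic response, mortality and time of death recorded; acute toxicity level preliminarily set from doses without mortality.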
# [3] = system: male SD rats; assay: in vivo; conditions: one animal per row, observed 24 hours
# Method in brief: as §1
# [4] = intravenous (tail vein) 30 µg/Kg
# [5] = intravenous (tail vein) 60 µg/Kg
# [6] = intravenous (tail vein) 120 µg/Kg
compound,measurement,setting,value
CCCCCCCCCCCC(=O)N[C@@H](CCC(=O)NCCOCCOCC(=O)NCCCC[C@H](NC(=O)[C@H](Cc1c[nH]cn1)NC(=O)[C@H](C)NC(=O)[C@H](Cc1ccccc1)NC(=O)[C@H](Cc1ccc(O)cc1)NC(=O)[C@@H](NC(=O)[C@H](C)NC(=O)[C@H](CCC(=O)O)NC(=O)[C@H](CCC(=O)O)NC(=O)[C@H](CC(=O)O)NC(=O)/C=C/C(=O)O)C(C)C)C(=O)N[C@@H](CC(=O)O)C(=O)N[C@H](C(=O)N[C@H](C(=O)N[C@@H](Cc1c[nH]c2ccccc12)C(=O)O)[C@@H](C)CC)C(C)C)C(=O)O [BX229-Na] (Fumaroyl-DEEAVYFAHK([AEEA-γGlu-Lauroyl])DVIW-OH),EC50,[1],17.9 nM
CC[C@H](C)[C@H](NC(=O)[C@H](CC(=O)O)NC(=O)[C@H](CCCCNC(=O)COCCOCCNC(=O)CCN1C(=O)CC(SC[C@H](N)C(=O)N2CCC[C@H]2C(=O)N[C@@H](C)C(=O)N[C@@H](CCCCN)C(=O)O)C1=O)NC(=O)[C@H](Cc1c[nH]cn1)NC(=O)[C@H](C)NC(=O)[C@H](Cc1ccccc1)NC(=O)[C@H](Cc1ccc(O)cc1)NC(=O)[C@@H](NC(=O)[C@H](C)NC(=O)[C@H](CCC(=O)O)NC(=O)[C@H](CCC(=O)O)NC(=O)[C@H](CC(=O)O)NC(=O)/C=C/C(=O)O)C(C)C)C(=O)N[C@H](C(=O)N[C@@H](Cc1c[nH]c2ccccc12)C(=O)O)[C@@H](C)CC (stereo partly shown) [BX-95] (Fumaroyl-DEEAVYFAHK([AEEA-X1])DIIW-OH),EC50,[1],69.1 nM
CCCCCCCCCCCC(=O)N[C@@H](CCC(=O)NCCOCCOCC(=O)NCCCC[C@H](NC(=O)[C@H](Cc1c[nH]cn1)NC(=O)[C@H](C)NC(=O)[C@H](Cc1ccccc1)NC(=O)[C@H](Cc1ccc(O)cc1)NC(=O)[C@@H](NC(=O)[C@H](C)NC(=O)[C@H](CCC(=O)O)NC(=O)[C@H](CCC(=O)O)NC(=O)[C@H](CC(=O)O)NC(=O)/C=C/C(=O)O)C(C)C)C(=O)N[C@@H](CC(=O)O)C(=O)N[C@H](C(=O)N[C@H](C(=O)N[C@@H](Cc1c[nH]c2ccccc12)C(=O)O)[C@@H](C)CC)[C@@H](C)CC)C(=O)O [BX-225] (Fumaroyl-DEEAVYFAHK([AEEA-γGlu-Lauroyl])DIIW-OH),MTD at 24 h,[2],0.03 mg/kg
same,Observations of Animal Status,[3]; [4],No obvious abnormalities observed within 24 hours
same,Observations of Animal Status,[3]; [5],Lay still and showed no willingness to move at 7 minutes; became active at 10 minutes; signs of pain were observed in the animal through pupil observation; no pain at 23 minutes; also recorded: Lay still and showed no willingness to move at 7 minutes; became active at 10 minutes; signs of pain were observed in the animal through pupil observation; developed rapid breathing at 35 minutes; died at 70 minutes
same,Observations of Animal Status,[3]; [6],"Breathing became slightly faster at 2 minutes, showed no willingness to move, had slow reactions, and breathing speeded up at 25 minutes; the symptoms basically eased at 1.5 hours; also recorded: Showed no willingness to move, had slow reactions, and breathing became slightly faster at 10 minutes; the symptoms lasted for nearly 1 hour; the symptoms basically eased at 1 hour and 10 minutes; also recorded: Developed abdominal breathing and lay still at 27 minutes; died of difficulty in breathing at 40 minutes; also recorded: Developed abdominal breathing and lay still at 25 minutes; died of difficulty in breathing at 32 minutes"
same,Observations of Animal Status,[3]; intravenous (tail vein) 240 µg/Kg,"Developed rapid breathing at 4 minutes, collapsed at 5 minutes, eyes turned dull at 7 minutes; died at 12 minutes"
"CC[C@H](C)[C@H](NC(=O)[C@H](CC(=O)O)NC(=O)[C@H](CC(C)C)NC(=O)[C@H](Cc1c[nH]cn1)NC(=O)[C@H](C)NC(=O)[C@H](Cc1ccccc1)NC(=O)[C@H](Cc1ccc(O)cc1)NC(=O)[C@@H](NC(=O)[C@H](C)NC(=O)[C@H](CCC(=O)O)NC(=O)[C@H](CCC(=O)O)NC(=O)[C@H](CC(=O)O)NC(=O)CCC(=O)O)C(C)C)C(=O)N[C@H](C(=O)N[C@@H](Cc1c[nH]c2ccccc12)C(=O)O)[C@@H](C)CC [IRL1620, reference compound] (Suc-DEEAVYFAHLDIIW-OH)",MTD at 24 h,[2],0.03 mg/kg
same,Observations of Animal Status,[3]; [4],"Developed rapid breathing at 13 minutes, showed no willingness to move at 30 minutes; recovered at 1.5 hours; also recorded: Developed rapid breathing at 15 minutes, showed no willingness to move at 25 minutes; recovered at 1.5 hours; also recorded: Lay still at 25 minutes, showed no willingness to move at 1.5 hours; found dead the next morning (estimated to have died during the night)"
same,Observations of Animal Status,[3]; [5],Developed rapid breathing at 3 minutes; died at 8 minutes
same,Observations of Animal Status,[3]; [6],Developed rapid breathing and the body turned purple at 5 minutes; died at 9 minutes
Fum-DEEEVYFAHKDIIW (Fumaroyl-DEEEVYFAHKDIIW) [BX-52],"DETAR Agonist Activity, %",[1]; @10nM,76.82%@10 nM
same,"DETAR Agonist Activity, %",[1]; @100nM,104.49%@1 00nM
Fum-DEEEVYFAHOrnDIIW [BX-59],"DETAR Agonist Activity, %",[1]; @10nM,14.7%@10n M
same,"DETAR Agonist Activity, %",[1]; @100nM,117.46%@1 00nM
"Suc-DE cyclo(CEEC)YFAHKDIIW (Suc-DECEECYFAHKDIIW; not fully specified (bridges); printed as Suc-DE cyclo(CEEC)YFAHKDIIW; also: cyclo(CEEC) in N-terminal extension, bond type not given here) [BX-57]","DETAR Agonist Activity, %",[1]; @100nM,49.81%

# Source: EP4702986A1, “POLYPEPTIDE AND USE THEREOF” (Biocells (Beijing) Biotech Co., Ltd., priority 2023, dated 2024)
